The results in this text go back to ChEMBL document CHEMBL1123500, “Synthesis and antitumor activity of tropolone derivatives. 3” (1986).

Bounds are passed on as bounds.

The test system of assay [1] is P388. In words: Antitumor activity in P388 inoculated mice following 5 mg/kg i.p. administration. Format: functional, Mus musculus. The conditions noted are these: route intraperitoneal.
Assay [2] is described as follows: In vitro inhibition of KB cell growth. Format: functional, Homo sapiens.
Assay [3] concerns P388. The assay can be described thus: Antitumor activity in P388 inoculated mice following 10 mg/kg i.p. administration. Format: functional, Mus musculus. Particulars: route intraperitoneal.
In assay [4] the test system is P388. The assay can be described thus: Antitumor activity against P388, was determined by injecting intraperitoneally in mice, at a dose of 20 mg/kg. Type of assay: functional, Mus musculus. Particulars: route intraperitoneal.
Assay [5] relates to P388. In words: Antitumor activity against P388, was determined by injecting intraperitoneally in mice, at a dose of 400 mg/kg. Type of assay: functional, Mus musculus. The conditions noted are these: route intraperitoneal.
The test system of assay [6] is P388. In words: Antitumor activity against P388, was determined by injecting intraperitoneally in mice, at a dose of 200 mg/kg. Particulars: route intraperitoneal. Format: functional, Mus musculus.
For assay [7], the system named is P388. In words: Antitumor activity against P388, was determined by injecting intraperitoneally in mice, at a dose of 100 mg/kg. The conditions noted are these: route intraperitoneal. Type of assay: functional, Mus musculus.
Assay [8] concerns P388. The assay can be described thus: Antitumor activity against P388, was determined by injecting intraperitoneally in mice, at a dose of 1.3 mg/kg. Format: functional, Mus musculus. Particulars: route intraperitoneal.
Assay [9] has as its system P388. The assay can be described thus: Antitumor activity against P388, was determined by injecting intraperitoneally in mice, at a dose of 2.5 mg/kg. The conditions noted are these: route intraperitoneal. Type of assay: functional, Mus musculus.
The subject of assay [10] is P388. The assay can be described thus: Antitumor activity against P388, was determined by injecting intraperitoneally in mice, at a dose of 10 mg/kg. Format: functional, Mus musculus. Particulars: route intraperitoneal.
The test system of assay [11] is P388. In words: Antitumor activity against P388, was determined by injecting intraperitoneally in mice, at a dose of 50 mg/kg. Particulars: route intraperitoneal. Format: functional, Mus musculus.
Assay [12] concerns P388. The assay can be described thus: Antitumor activity against P388, was determined by injecting intraperitoneally in mice, at a dose of 5 mg/kg. The conditions noted are these: route intraperitoneal.

Consider `CC(C)c1ccc(C(c2ccc(C(C)C)cc(=O)c2O)c2cccc3ccccc23)c(O)c(=O)c1`, for which the T/C turned out to be 180% with P388 [1], 178% in the assay with P388 [3] and 178% in the assay with P388 [4]. This compound also registered an Activity in assay [2] of 2.6 µg/mL.
For the compound `COc1ccc(C(c2ccc(C(C)C)cc(=O)c2O)C(c2ccc(OC)cc2)c2ccc(C(C)C)cc(=O)c2O)cc1` (stereo unspecified), the results for the T/C in the assay on P388 [5], with P388 [6] and in the assay with P388 [7] were 139%, 140% and 138%, respectively. In [2], this compound had an Activity of 5.2 µg/mL.
Take `CC(C)c1ccc(C(c2ccc(C(=O)O)cc2)c2ccc(C(C)C)cc(=O)c2O)c(O)c(=O)c1`: the Activity in assay [2] was found to be 0.5 µg/mL. Moreover, the T/C in the assay on P388 [3] is given as 139%; in the assay with P388 [8], 124%; with P388 [9] it was 154%; in the assay on P388 [4], 0%.
For the compound `CC(C)c1ccc(C(c2ccc(C(c3ccc(C(C)C)cc(=O)c3O)c3ccc(C(C)C)cc(=O)c3O)cc2)c2ccc(C(C)C)cc(=O)c2O)c(O)c(=O)c1`, the figures for the T/C in the assay with P388 [1], in the assay on P388 [3] and in the assay on P388 [4] were 107%, 105% and 100%, respectively. The compound further gave an Activity in assay [2] of 100 µg/mL.
`CCOC(=O)COc1ccc(C(c2ccc(C(C)C)cc(=O)c2O)c2ccc(C(C)C)cc(=O)c2O)cc1`: the T/C was 125% in the assay with P388 [1], 0% with P388 [10] and 0% in the assay with P388 [4].
Turning to `CC(C)c1ccc(C(c2ccc(OCc3ccccc3)cc2)C(c2ccc(OCc3ccccc3)cc2)c2ccc(C(C)C)cc(=O)c2O)c(O)c(=O)c1` (stereo unspecified), the Activity in assay [2] is under 100 µg/mL.
In the case of `CC(C)c1ccc(C(c2ccc3c(c2)OCO3)c2ccc(C(C)C)cc(=O)c2O)c(O)c(=O)c1`, the T/C with P388 [1] is given as 182%; with P388 [3], 193%; in the assay on P388 [4], 186%. Besides, the Activity in assay [2] was 0.5 µg/mL.
Turning to `CC(C)c1ccc(C(c2ccc([N+](C)(C)C)cc2)c2ccc(C(C)C)cc(=O)c2O)c(O)c(=O)c1.[I-]`, the T/C with P388 [1] came out at 102%; in the assay on P388 [3], 95%; in the assay on P388 [4], 91%. Further, the Activity in assay [2] is 2.5 µg/mL.
For `COC(=O)c1ccc(C(c2ccc(C(C)C)cc(=O)c2O)c2ccc(C(C)C)cc(=O)c2O)cc1` the same measures were 145%, 128%, 0% and 0.5 µg/mL.
In the case of `CC(C)c1ccc(C(c2ccco2)c2ccc(C(C)C)cc(=O)c2O)c(O)c(=O)c1`, the T/C with P388 [1] was found to be 177%; in the assay with P388 [3], 0%; in the assay on P388 [8] it was 132%; in the assay with P388 [9] it was 142%.
`CC(C)c1ccc(C(c2ccc(-c3ccccc3)cc2)c2ccc(C(C)C)cc(=O)c2O)c(O)c(=O)c1`: the T/C with P388 [1] is on record as 111%; with P388 [3] it was 138%; in the assay on P388 [4] it was 127%. The compound also yielded an Activity in assay [2] of 2.5 µg/mL.
As for `COc1cc(C(c2ccc(C(C)C)cc(=O)c2O)c2ccc(C(C)C)cc(=O)c2O)cc(OC)c1OC`, the T/C in the assay with P388 [1] is 142%; in the assay on P388 [3], 151%; with P388 [4] it was 162%. The compound also registered an Activity in [2] of under 0.3 µg/mL.
In the case of `CC(C)c1ccc(C(c2ccc(OCC(=O)[O-])cc2)c2ccc(C(C)C)cc(=O)c2O)c(O)c(=O)c1.[Na+]`, the values for the T/C in the assay with P388 [1] and in the assay with P388 [3] were 109% and 0%, respectively. In assay [2], this compound came in with an Activity of 2.6 µg/mL.
With `CC(C)c1ccc(C(c2ccc(N)cc2)c2ccc(C(C)C)cc(=O)c2O)c(O)c(=O)c1`, the T/C in the assay with P388 [1] is listed as 138%; in the assay with P388 [3], 147%; with P388 [4], 147%.
On to `CC(=O)Nc1ccc(C(c2ccc(C(C)C)cc(=O)c2O)c2ccc(C(C)C)cc(=O)c2O)cc1`, for which the T/C in the assay on P388 [1] amounted to 171%; with P388 [3] it was 128%; in the assay on P388 [4], 0%. This compound came in with an Activity in assay [2] of under 0.3 µg/mL.
`CC(C)c1ccc(C(c2ccc(OCc3ccccc3)cc2)c2ccc(C(C)C)cc(=O)c2O)c(O)c(=O)c1` showed an Activity in [2] of 4.65 µg/mL. Also, the results for the T/C with P388 [11], with P388 [7] and in the assay on P388 [4] were 148%, 152% and 101%, respectively.
As for `CC(C)c1ccc(C(c2ccc(O)cc2)c2ccc(C(C)C)cc(=O)c2O)c(O)c(=O)c1`, the T/C in the assay on P388 [1] worked out at 195%; in the assay on P388 [3] it was 0%; in the assay on P388 [8], 139%. In assay [2], this compound returned an Activity of under 0.3 µg/mL.
Turning to `CC(C)c1ccc(C(c2cccs2)c2ccc(C(C)C)cc(=O)c2O)c(O)c(=O)c1`, the T/C was 178% with P388 [1], 57% in the assay on P388 [3] and 178% with P388 [12]. Further, in assay [2], the Activity was 0.6 µg/mL.
Regarding `CC(C)c1ccc(C(c2cccc3ccccc23)C(c2ccc(C(C)C)cc(=O)c2O)c2cccc3ccccc23)c(O)c(=O)c1` (stereo unspecified), the results for the T/C in the assay with P388 [5], with P388 [6] and in the assay with P388 [7] were 95%, 96% and 98%, respectively. In assay [2], this compound showed an Activity of under 100 µg/mL.
Consider `COc1ccc(C(c2ccc(C(C)C)cc(=O)c2O)c2ccc(C(C)C)cc(=O)c2O)cc1`, for which the T/C came to 173% in the assay on P388 [1], 170% with P388 [3], 170% with P388 [10] and 134% in the assay with P388 [9]. In assay [2], the Activity is under 0.3 µg/mL.
Regarding `CC(C)c1ccc(C(c2ccccc2)c2ccc(C(C)C)cc(=O)c2O)c(O)c(=O)c1`, the T/C with P388 [1] is listed as 188%; in the assay with P388 [3] it was 0%; in the assay with P388 [8], 132%; with P388 [9] it was 150%. Also, the Activity in assay [2] was under 0.3 µg/mL.
